Reference: patent publication US4397842A, “Peptides having thymopoietin-like activity” (Ortho Pharmaceutical Corporation, priority 1981, dated 1983)
Non-standard residues stand in square brackets, D forms with d. Residues, ends and D or L forms follow the SMILES beside them. Sar = CNCC(=O)O

Experiments:
CR^- B cell precursors = experiment: induction in vitro of CR+ B cell differentiation from CR- B cell precursors; format: cell-based, nu/nu mice; details: same concentrations as for T cell induction
Description: (§1) To determine the activity and characteristics of the polypeptide of Example I, determinations were carried out on healthy 5-6 week nu/nu mice of both sexes, the mice being bred on a BALB/c background (thymocytes expressing Thy-1.2 surface antigen) and maintained under conventional conditions. For the antisera, anti Thy-1.2 sera were prepared in Thy-1 congenic mice.
(§2) For the induction in vitro of Thy-1^+ T cells or CR^+ B cell differentiation, the induction of thymocyte differentiation from prothymocytes in vitro was performed as described by Komuro and Boyse, (Lancet, 1, 740, 1973), using the acquisition of Thy-1.2 as a marker of T cell differentation. The induction of CR^+ B cell differentiation from CR^- B cell precursors in vitro was performed under similar conditions using as the assay criterion, the capacity of CR^+ B cells to bind sheep erythrocytes coated with subagglutinating quantities of rabbit antibody and nonlytic complement. Spleen cell populations from healthy nu/nu mice fractionated on discontinuous bovine serum albumin gradients were used as the source of both precursor types (Thy-1^- and CR^-) because they have few or no Thy-1^+ cells and low numbers of CR^+ cells.

prothymocytes = experiment: induction in vitro of Thy-1+ T cell differentiation (Komuro and Boyse), acquisition of Thy-1.2 as marker; format: cell-based, nu/nu mice; details: for biological activity compared with the pentapeptide prepared in Example I: qualitative statement
Description: as §1, §2

Structure (SMILES) | induction of differentiation of CR+ B cells (CR^- B cell precursors) | biological activity compared with the pentapeptide prepared in Example I (prothymocytes) | concentration at which peptide is active (prothymocytes; assay of Example II)
CC(C)[C@H](NC(=O)[C@H](CC(=O)O)NC(=O)CN(C)C(=O)[C@@H](N)CCCNC(=N)N)C(=O)N[C@@H](Cc1ccc(O)cc1)C(=O)O [Example I, H--ARG--SAR--ASP--VAL--TYR--OH] (H-R[Sar]DVY-OH) | did not induce | – | –
CN(CC(=O)N[C@@H](Cc1ccc(O)cc1)C(=O)O)C(=O)[C@H](CC(=O)O)NC(=O)[C@H](CCCCN)NC(=O)[C@@H](N)CCCNC(=N)N [Example IVC, H--ARG--LYS--ASP--SAR--TYR--OH] (H-RKD[Sar]Y-OH) | – | same biological activity | –
CC(C)[C@H](NC(=O)[C@H](CC(=O)O)NC(=O)[C@@H](C)NC(=O)[C@@H](N)CCCNC(=N)N)C(=O)N[C@@H](Cc1ccc(O)cc1)C(=O)O [III, H--ARG--D--ALA--ASP--VAL--TYR--OH] (H-R[dA]DVY-OH) | – | same biological activity | –
CN(CC(=O)N[C@@H](Cc1ccc(O)cc1)C(=O)O)C(=O)[C@H](CC(=O)O)NC(=O)CN(C)C(=O)[C@@H](N)CCCNC(=N)N [IVA, H--ARG--SAR--ASP--SAR--TYR--OH] (H-R[Sar]D[Sar]Y-OH) | – | same biological activity | –
CN(CC(=O)N[C@@H](Cc1ccc(O)cc1)C(N)=O)C(=O)[C@H](CC(=O)O)NC(=O)CN(C)C(=O)[C@@H](N)CCCNC(=N)N [IVB, H--ARG--SAR--ASP--SAR--TYR--NH2] (H-R[Sar]D[Sar]Y-NH2) | – | same biological activity | 0.1 pg/mL
